Key:
[1] = Iodometric titration of clear saturated stock solutions; format: physicochemical; conditions: 1 gram powder slurried in 100 mL deionized water, stirred 20 minutes, filtered
Description: Stock solutions of DBDMH and of BCDMH were prepared by slurrying 1 gram of the respective powders in 100 mL of deionized water. After stirring for 20 minutes, the insolubles were filtered to yield clear saturated stock solutions of DBDMH and BCDMH, respectively. Iodometric titration of the stock solutions using the potassium iodide-sodium thiosulfate method indicated the DBDMH solution contained 580 mg/L (as total chlorine), and the BCDMH solution contained 1100 mg/L (as total chlorine).

aerobic bacteria = assay: Cooling tower field trial of 51 days, Example 3: bacteria levels
From the text: Using the same cooling tower as used in Example 2, the effectiveness of 1,3-dibromo-5,5-dimethylhydantoin in microbiological control in cooling tower water was investigated. As noted above, the cooling tower consisted of two 500-ton units in a crossflow design. The total system-contained volume was 14,000 gallons, and the tower contained medium efficiency film fill. Water from the tower cooled the coils of two 300-ton air conditioners (chillers). The tower typically operated at a pH of about 9.1 and 4 cycles of concentration. Blowdown was controlled by conductivity. Make-up water consisted of softened city water and which was of good quality. The make-up water was very low in calcium (<10 mg/L) but high in pH (8.7). The alkalinity was 145 mg/L (as CaCO3), and the silica level was 28 mg/L. The tower employed a conventional polyphosphate/molybdate/phosphonate program to provide corrosion and deposit control.
The 1,3-dibromo-5,5-dimethylhydantoin was introduced to the water using granules charged to a solid halogen feeder (Neptune model BT-40, Neptune Chemical Pump Co., Inc., Lansdale, Pa.). The field trial lasted 51 days. The tower was slug dosed three times a week with 1,3-dibromo-5,5-dimethylhydantoin. Slug dosing was accomplished by diverting a sidestream of the recirculating water through the feeder containing the granules for about 1 to 5 hours until a total halogen residual of about 0.75 mg/L (as Cl2) was obtained. This biocide program reduced bacterial levels in the bulk water by an average of 2 orders of magnitude, with bacteria levels in the bulk water after the biocide dose ranging from 10^1 to 10^3 CFUs/mL.
The results from the average of several analyses conducted during the course of this field trial using DBDMH were as follows: In the microbiological tests, the levels of aerobic bacteria were in the range of 6×10^0 to 3×10^3 CFUs/mL in the cooling tower water and 10^0 in the make-up water. […]

planktonic bacteria = assay: Cooling tower field test with floater dispenser, Example 5: planktonic plate counts; conditions: substantially continuous dosing from floater, 0.15 to 0.2 ppm of free halogen as Br2
Description: Another field test was carried out in the cooling tower described in Example 2 above. In this field test the cooling tower water was substantially continuously dosed with DBDMH using a Rainbow Lifeguard swimming pool floater having a capacity of about 3 lbs of granules, with the slots in the wide open position. This floater, charged with DBDMH granules, was placed and secured in the tower basin, a very convenient location for addition of the biocide when needed. The floater delivered a dose of “free halogen” to maintain a dosage level in the range of 0.15 to 0.2 ppm of free halogen as Br2.
The granules of DBDMH used in Examples 2-5 have an average size in the range of about 40 U.S. standard mesh size to about ⅜-inch, and an average crush strength of at least 15 pounds per inch of thickness. The combination of the low water solubility of DBDMH coupled with its use in granular form provided a slow but continuous or substantially continuous automatic dosing of the cooling tower water so that a biocidally effective level of free bromine was maintained in the water during the entire test, with relatively infrequent refilling of the dispenser being required.

halogen content of saturated stock solution (as total chlorine) [1]: 580 mg/L
Structure (SMILES): CC1(C)C(=O)N(Br)C(=O)N1Br [DBDMH, 1,3-dibromo-5,5-dimethylhydantoin]
levels of aerobic bacteria (aerobic bacteria; in the cooling tower water, several analyses during field trial): 6×10^0 to 3×10^3 CFUs/mL | bacteria levels in the bulk water after the biocide dose (aerobic bacteria; slug dosed three times a week to total halogen residual about 0.75 mg/L (as Cl2)): 10^1 to 10^3 CFUs/mL | average reduction of bacterial levels in the bulk water (aerobic bacteria; slug dosed three times a week to total halogen residual about 0.75 mg/L (as Cl2), 51 days): 2 orders of magnitude | planktonic plate counts (planktonic bacteria): less than 10^4 CFU/mL

From patent US7579018B2, “Microbiological control in aqueous systems” (Albemarle Corporation, priority 2000, dated 2009)
